Source: ChEMBL document CHEMBL1128346, “Peptidyl alpha-ketoheterocyclic inhibitors of human neutrophil elastase. 2. Effect of varying the heterocyclic ring on in vitro potency” (J Med Chem, 1995)

Target: T1, Neutrophil elastase (Homo sapiens, UniProt P08246)
T1 sequence (P08246 whole entry): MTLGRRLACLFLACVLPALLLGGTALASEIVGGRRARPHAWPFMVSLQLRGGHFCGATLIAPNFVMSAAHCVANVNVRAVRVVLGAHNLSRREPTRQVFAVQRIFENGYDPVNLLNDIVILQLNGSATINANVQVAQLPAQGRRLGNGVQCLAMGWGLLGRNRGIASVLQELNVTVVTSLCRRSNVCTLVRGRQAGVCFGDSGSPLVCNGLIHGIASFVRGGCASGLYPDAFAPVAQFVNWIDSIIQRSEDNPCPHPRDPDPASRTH
Experiment: In vitro inhibitory activity against human neutrophil elastase (HNE) catalyzed hydrolysis of the synthetic substrate MeO-Suc-Ala- Ala-Pro-Val-pN

| Structure (SMILES) | Ki |
| --- | --- |
| COC(=O)C(=O)[C@@H](NC(=O)[C@@H]1CCCN1C(=O)[C@@H](NC(=O)OCc1ccccc1)C(C)C)C(C)C | 0.6 nM |
| CC(C)[C@H](NC(=O)[C@@H]1CCCN1C(=O)[C@@H](NC(=O)OCc1ccccc1)C(C)C)C(=O)C(N)=O | 1.8 nM |
| CC(C)[C@H](NC(=O)[C@@H]1CCCN1C(=O)[C@@H](NC(=O)OCc1ccccc1)C(C)C)C(=O)c1nnnn1C | 410 nM |
| CC(C)[C@H](NC(=O)[C@@H]1CCCN1C(=O)[C@@H](NC(=O)OCc1ccccc1)C(C)C)C(=O)C1=N[C@@H](C)CO1 | 1.2 nM |
| CC(C)[C@H](NC(=O)[C@@H]1CCCN1C(=O)[C@@H](NC(=O)OCc1ccccc1)C(C)C)C(=O)c1ncoc1-c1ccccc1 | 330 nM |

Continued, values first:

| Ki | Structure (SMILES) |
| --- | --- |
| 87000 nM | CCOc1cccnc1C(=O)[C@@H](NC(=O)[C@@H]1CCCN1C(=O)[C@@H](NC(=O)OCc1ccccc1)C(C)C)C(C)C |
| 49 nM | CC(C)[C@H](NC(=O)[C@@H]1CCCN1C(=O)[C@@H](NC(=O)OCc1ccccc1)C(C)C)C(=O)c1nnn(C)n1 |
| 1.6 nM | CCCCC(=O)C(=O)[C@@H](NC(=O)[C@@H]1CCCN1C(=O)[C@@H](NC(=O)OCc1ccccc1)C(C)C)C(C)C |
| 0.4 nM | CC(C)[C@H](NC(=O)OCc1ccccc1)C(=O)N1CCC[C@H]1C(=O)N[C@H](C(=O)C(F)(F)C(=O)NCc1ccccc1)C(C)C |

Target: T1, Neutrophil elastase
Experiment: In vitro inhibitory activity against human neutrophil elastase (HNE) catalyzed hydrolysis of the synthetic substrate MeO-Suc-Ala- Ala-Pro-Val-pN; 'b' means could not be accurately determined due to low solubility

| Structure (SMILES) | Ki |
| --- | --- |
| CC(C)[C@H](NC(=O)[C@@H]1CCCN1C(=O)[C@@H](NC(=O)OCc1ccccc1)C(C)C)C(=O)c1cc2ccccc2s1 | Could not be accurately determined due to low solubility |
